From US9518022B2, “Anti-HIV compounds” (priority 2014, dated 2016) come the findings set out here.

Like-named read-outs stand apart in the source and are kept apart here.

A short description of the data set: Cytotoxicity assay (AlamarBlue) in mock infected MT-2 cells. It is filed as cell-based. The settings on record: human. On the procedure:
The present assay was used to screen candidate antiviral compounds by quantification of virus spread and production over several rounds of infection in vitro. MT-2, a HIV-1 permissive human T-cell line, was seeded in microtiter plates and was simultaneously treated with serially diluted compound and inoculated with a HIV-1 NL4-3 viral clone engineered to express Renilla luciferase in place of Nef. Following treatment, the culture was incubated for 96 hours. After the incubation, media was collected and used to estimate relative infectivity on the indicator cell line, TZM-bl. Additionally, viral spread was quantified by measuring luciferase activity via a commercially available luciferase substrate. In parallel, MT-2 cells were seeded and inoculated with mock virus in the presence of serially diluted compound. Compound toxicity was quantified 96 hours after treatment with AlamarBlue.
MT-2 (NIH Aids reagent program 237) cells were grown and maintained in an incubator at 37° C. with 5% CO2 using a basal medium of RPMI-1640 supplemented with 10% FBS. Cells were seeded in 100 μl at 2×10^4 cells/well in white walled 96-well microtiter plates. Candidate compounds were 3-fold serially diluted in the appropriate solvent. Solvent without compound was used as a no drug reference. Cells were inoculated at a multiplicity of 0.027 with an HIV-1 NL4-3 virus stock engineered to express Renilla luciferase in place of Nef. Diluted virus stock was first added to serially diluted compound. Compound and virus were delivered to cells in an equal volume (100 μl) and treated cultures were returned to the incubator for 96 hours. In parallel, plates for cytotoxicity estimates were prepared in the same way except cells were plated in clear walled 96-well microtiter plates and were mock infected.
At 96 hours post treatment, 20 μl AlamarBlue proliferation reagent was added to 200 μl treated and mock infected cultures and incubated for 3 hours at 37° C. with 5% CO2 then read at 545, 590 nm on fluorescence plate reader (Biotek).
For all assays, data was imported into Accelrys Assay Explorer 3.3. In Assay Explorer, % inhibition (antiviral or cytotoxicity) was calculated using the solvent control as a reference by the following equation: 1−(SignalCompound/SignalReference). The % Inhibition and compound concentration data was fitted using the following 4-parameter logistic model (Assay Explorer model 42):
[formula] where X is compound concentration, Y is % inhibition, D is the maximum % Inhibition (constrained to 100%), C is IC50 value or inflection point, B is the hill slope, and A is the minimum % inhibition (constrained to 0%). The IC50 value is reported as the EC50 or CC50 depending on the assay endpoint. EC50 represents the effective concentration at which virus replication is inhibited by 50 percent. CC50 represents the concentration that results in the death of 50 percent of the host cells. The selectivity or therapeutic index (SI or TI), is the ratio of CC50 over EC50 and represents the relative effectiveness in inhibiting viral replication compared to inducing cell death.
Background: Alamar Blue is a resazurin reagent that responds to reducing activity.

Where [1] appears, read: mock infected MT-2 cells, 96 hours, AlamarBlue, read-out: CC50.

Molecule `COc1cc(C)c(/C=C/C2NCCc3cc(OCc4ccccc4)c(OC)cc32)cc1OCc1ccccc1` (stereo not drawn) [AF, 6-benzyloxy-1-[(E)-2-(5-benzyloxy-4-methoxy-2-methyl-phenyl)vinyl]-7-methoxy-1,2,3,4-tetrahydroisoquinoline] came in with a CC50 at 96 h of 3.87 µM.
With `COc1cc2c(cc1OCc1ccccc1)CCNC2/C=C/c1cc(OC)c(OCc2ccccc2)c(OC)c1` (stereo not drawn) [AP, 6-(benzyloxy)-1-[(E)-2-[4-(benzyloxy)-3,5-dimethoxyphenyl]ethenyl]-7-methoxy-1,2,3,4-tetrahydroisoquinoline], under setting [1], the CC50 at 96 h came out at 1.64 µM.
Consider `COc1cc(OC)c(OC)cc1/C=C/C1NCCc2cc(OCc3ccccc3)c(OC)cc21` (stereo not drawn) [AQ, 6-(benzyloxy)-7-methoxy-1-[(E)-2-(2,4,5-trimethoxyphenyl)ethenyl]-1,2,3,4-tetrahydroisoquinoline], for which, under setting [1], the CC50 at 96 h was 1.98 µM.
The same measure, in the same setting: the value for `COc1ccc(/C=C/C2NCCc3cc(OCc4ccccc4)c(OC)cc32)cc1Br` (stereo not drawn) [AR, 6-(benzyloxy)-1-[(E)-2-(3-bromo-4-methoxyphenyl)ethenyl]-7-methoxy-1,2,3,4-tetrahydroisoquinoline] was 6.2 µM.
Consider `COc1cc(/C=C/C2NCCc3cc(OCc4ccccc4)c(OC)cc32)cc(OC)c1` (stereo not drawn) [AT, 6-(benzyloxy)-1-[(E)-2-(3,5-dimethoxyphenyl)ethenyl]-7-methoxy-1,2,3,4-tetrahydroisoquinoline], for which the CC50 at 96 h worked out at 4.85 µM.
On to `COc1cc(/C=C/C2NCCc3cc(OCc4ccccc4)c(OC)cc32)ccn1` (stereo not drawn) [AU, 6-benzyloxy-7-methoxy-1-[(E)-2-(2-methoxy-4-pyridyl)vinyl]-1,2,3,4-tetrahydroisoquinoline], for which, under setting [1], the CC50 at 96 h was 3.22 µM.
Regarding `COc1ccc(/C=C/C2NCCc3cc(OCc4ccccc4)c(OC)cc32)c(OC)c1` (stereo not drawn) [AV, 6-(benzyloxy)-1-[(E)-2-(2,4-dimethoxyphenyl)ethenyl]-7-methoxy-1,2,3,4-tetrahydroisoquinoline], the midpoint of cytotoxicity, the CC50 at 96 h, lay at 5.5 µM.
With `COc1cc2c(cc1OCc1ccccc1)CCNC2/C=C/c1ccncc1` (stereo not drawn) [AW, 6-(benzyloxy)-7-methoxy-1-[(E)-2-(pyridin-4-yl)ethenyl]-1,2,3,4-tetrahydroisoquinoline], the CC50 at 96 h under setting [1] turned out to be 11.4 µM.
`COc1ccc(/C=C/C2NCCc3cc(OCc4ccccc4)c(OC)cc32)cn1` (stereo not drawn) [AX, 6-benzyloxy-7-methoxy-1-[(E)-2-(6-methoxy-3-pyridyl)vinyl]-1,2,3,4-tetrahydroisoquinoline]: the CC50 at 96 h under setting [1] turned out to be 11.4 µM.
In turn, `COc1cc2c(cc1OCc1ccccc1)CCNC2c1cc(OCc2ccccc2)c(OC)cc1C` (stereo not drawn) [AY, 6-(benzyloxy)-1-[5-(benzyloxy)-4-methoxy-2-methylphenyl]-7-methoxy-1,2,3,4-tetrahydroisoquinoline] showed a CC50 at 96 h of 5.14 µM.
Still for that read-out and setting: the value for `COc1cc2c(cc1OCc1ccccc1)CCNC2c1ccccc1CNC(=O)OC(C)(C)C` (stereo not drawn) [AZ, tert-butyl N-({2-[6-(benzyloxy)-7-methoxy-1,2,3,4-tetrahydroisoquinolin-1-yl]phenyl}methyl)carbamate] was 9.48 µM.
Still for that read-out and setting: the value for `COc1cc(C)c(/C=C/C2NCCc3cc(OCc4ccccc4)c(OC)cc32)c(C)c1` (stereo not drawn) [BA, 6-(benzyloxy)-7-methoxy-1-[(E)-2-(4-methoxy-2,6-dimethylphenyl)ethenyl]-1,2,3,4-tetrahydroisoquinoline] was 3.33 µM.
In the case of `COc1cc2c(cc1OCc1ccccc1)CCNC2/C=C/c1cc2c(cc1C)OCO2` (stereo not drawn) [BB, 6-(benzyloxy)-7-methoxy-1-[(E)-2-(6-methyl-2H-1,3-benzodioxol-5-yl)ethenyl]-1,2,3,4-tetrahydroisoquinoline], the CC50 at 96 h was 2.98 µM.
For `COc1cc2c(cc1OCc1ccccc1)CCNC2/C=C/c1cc2c(cc1C)OCCO2` (stereo not drawn) [BC, 6-(benzyloxy)-7-methoxy-1-[(E)-2-(7-methyl-2,3-dihydro-1,4-benzodioxin-6-yl)ethenyl]-1,2,3,4-tetrahydroisoquinoline], the CC50 at 96 h worked out at 2.43 µM.
In turn, `CCCCOc1ccc(/C=C/C2NCCc3cc(OCc4ccccc4)c(OC)cc32)cc1OC` (stereo not drawn) [BD, 6-(benzyloxy)-1-[(E)-2-(4-butoxy-3-methoxyphenyl)ethenyl]-7-methoxy-1,2,3,4-tetrahydroisoquinoline] displayed a CC50 at 96 h of 3.62 µM.
The same measure, in the same setting: the value for `CCCCOc1cc(/C=C/C2NCCc3cc(OCc4ccccc4)c(OC)cc32)ccc1OC` (stereo not drawn) [BE, 6-(benzyloxy)-1-[(E)-2-(3-butoxy-4-methoxyphenyl)ethenyl]-7-methoxy-1,2,3,4-tetrahydroisoquinoline] was 3.75 µM; that for `COc1ccc(/C=C/C2NCCc3cc(OCc4ccccc4)c(OC)cc32)cc1F` (stereo not drawn) [BF, 6-(benzyloxy)-1-[(E)-2-(3-fluoro-4-methoxyphenyl)ethenyl]-7-methoxy-1,2,3,4-tetrahydroisoquinoline] was 33.5 µM; that for `COc1cc2c(cc1OCc1ccccc1)CCNC2/C=C/c1ccc(N(C)C)cc1C` (stereo not drawn) [BG, 4-[(E)-2-[6-(benzyloxy)-7-methoxy-1,2,3,4-tetrahydroisoquinolin-1-yl]ethenyl]-N,N,3-trimethylaniline] was 4.44 µM.
With `COc1cc2c(cc1OCc1ccccc1)CCNC2/C=C/c1cc(OC(F)(F)F)ccc1C` (stereo not drawn) [BH, 6-(benzyloxy)-7-methoxy-1-[(E)-2-[2-methyl-5-(trifluoromethoxy)phenyl]ethenyl]-1,2,3,4-tetrahydroisoquinoline], the midpoint of cytotoxicity, the CC50 at 96 h, lay at 5.3 µM.
Same read-out and setting: the value for `COc1cc2c(cc1OCc1ccccc1)CCNC2/C=C/c1ccccc1` (stereo not drawn) [BI, 6-(benzyloxy)-7-methoxy-1-[(E)-2-phenylethenyl]-1,2,3,4-tetrahydroisoquinoline] was 10 µM.
Still for that read-out and setting: the same measure for `COc1ccc(/C=C/C2NCCc3cc(OCc4ccccc4)c(OC)cc32)cc1` (stereo not drawn) [BJ, 6-(benzyloxy)-7-methoxy-1-[(E)-2-(4-methoxyphenyl)ethenyl]-1,2,3,4-tetrahydroisoquinoline]: 20.9 µM.
`COc1cc2c(cc1OCc1ccccc1)CCNC2/C=C/c1cccc(OCc2ccccc2)c1` (stereo not drawn) [BK, 6-(benzyloxy)-1-[(E)-2-[3-(benzyloxy)phenyl]ethenyl]-7-methoxy-1,2,3,4-tetrahydroisoquinoline]: the CC50 at 96 h was determined as 4 µM.
For the molecule `CCCCOc1cc(/C=C/C2NCCc3cc(OCc4ccccc4)c(OC)cc32)c(C)cc1OC` (stereo not drawn) [BL, 6-(benzyloxy)-1-[(E)-2-(5-butoxy-4-methoxy-2-methylphenyl)ethenyl]-7-methoxy-1,2,3,4-tetrahydroisoquinoline], half-maximal cytotoxicity (CC50 at 96 h) was put at 1.1 µM.
Consider `COc1cc2c(cc1OCc1ccccc1)CCNC2/C=C/c1ccc2c(c1)CCO2` (stereo not drawn) [BM, 6-(benzyloxy)-1-[(E)-2-(2,3-dihydro-1-benzofuran-5-yl)ethenyl]-7-methoxy-1,2,3,4-tetrahydroisoquinoline], for which the CC50 at 96 h was 20.4 µM.
`COc1cc2c(cc1OCc1ccccc1)CCNC2/C=C/c1ccc2occc2c1` (stereo not drawn) [BN, 1-[(E)-2-(1-benzofuran-5-yl)ethenyl]-6-(benzyloxy)-7-methoxy-1,2,3,4-tetrahydroisoquinoline] gave a CC50 at 96 h of 20.7 µM.
As for `COc1cc(C)c(/C=C/C2NCCc3cc(OCc4ccccc4)c(OC)cc32)cc1OCCCC(=O)O` (stereo not drawn) [BO, 4-{5-[(E)-2-[6-(benzyloxy)-7-methoxy-1,2,3,4-tetrahydroisoquinolin-1-yl]ethenyl]-2-methoxy-4-methylphenoxy}butanoic acid], the midpoint of cytotoxicity, the CC50 at 96 h, lay at 8.96 µM.
On the same count and under the same terms, the value for `COc1cc(F)c(/C=C/C2NCCc3cc(OCc4ccccc4)c(OC)cc32)cc1OC` (stereo not drawn) [BP, 6-(benzyloxy)-1-[(E)-2-(2-fluoro-4,5-dimethoxyphenyl)ethenyl]-7-methoxy-1,2,3,4-tetrahydroisoquinoline] was 5.61 µM; that for `COc1ccc(/C=C/C2NCCc3cc(OCc4ccccc4)c(OC)cc32)cc1OC` (stereo not drawn) [BQ, 6-(benzyloxy)-1-[(E)-2-(3,4-dimethoxyphenyl)ethenyl]-7-methoxy-1,2,3,4-tetrahydroisoquinoline] was 8.7 µM.
On the same count and under the same terms, the value for `COc1ccc(/C=C/C2NCCc3cc(OCc4ccccc4)c(OC)cc32)c(F)c1` (stereo not drawn) [BR, 6-(benzyloxy)-1-[(E)-2-(2-fluoro-4-methoxyphenyl)ethenyl]-7-methoxy-1,2,3,4-tetrahydroisoquinoline] was 10 µM; that for `COc1cc2c(cc1OCc1ccccc1)CCNC2/C=C/c1sccc1C` (stereo not drawn) [BS, 6-(benzyloxy)-7-methoxy-1-[(E)-2-(3-methylthiophen-2-yl)ethenyl]-1,2,3,4-tetrahydroisoquinoline] was 11.3 µM.

As usually defined, the CC50 is the concentration at which the toxic effect on the cells reaches its halfway point.
